Results: BindingDB's records for doi:10.1021/jm051030l (University of Pittsburgh, 2006)
Structures can show the parent of a compound that is named as a salt.

target: Cytoplasmic dynein 1 heavy chain 1 (Rattus norvegicus, UniProt P38650); assay: Inhibition of MT-stimulated ATPase activity of rat cytoplasmic dynein heavy chain motor domain
Sequence (P38650 whole entry, the tested form may be a part): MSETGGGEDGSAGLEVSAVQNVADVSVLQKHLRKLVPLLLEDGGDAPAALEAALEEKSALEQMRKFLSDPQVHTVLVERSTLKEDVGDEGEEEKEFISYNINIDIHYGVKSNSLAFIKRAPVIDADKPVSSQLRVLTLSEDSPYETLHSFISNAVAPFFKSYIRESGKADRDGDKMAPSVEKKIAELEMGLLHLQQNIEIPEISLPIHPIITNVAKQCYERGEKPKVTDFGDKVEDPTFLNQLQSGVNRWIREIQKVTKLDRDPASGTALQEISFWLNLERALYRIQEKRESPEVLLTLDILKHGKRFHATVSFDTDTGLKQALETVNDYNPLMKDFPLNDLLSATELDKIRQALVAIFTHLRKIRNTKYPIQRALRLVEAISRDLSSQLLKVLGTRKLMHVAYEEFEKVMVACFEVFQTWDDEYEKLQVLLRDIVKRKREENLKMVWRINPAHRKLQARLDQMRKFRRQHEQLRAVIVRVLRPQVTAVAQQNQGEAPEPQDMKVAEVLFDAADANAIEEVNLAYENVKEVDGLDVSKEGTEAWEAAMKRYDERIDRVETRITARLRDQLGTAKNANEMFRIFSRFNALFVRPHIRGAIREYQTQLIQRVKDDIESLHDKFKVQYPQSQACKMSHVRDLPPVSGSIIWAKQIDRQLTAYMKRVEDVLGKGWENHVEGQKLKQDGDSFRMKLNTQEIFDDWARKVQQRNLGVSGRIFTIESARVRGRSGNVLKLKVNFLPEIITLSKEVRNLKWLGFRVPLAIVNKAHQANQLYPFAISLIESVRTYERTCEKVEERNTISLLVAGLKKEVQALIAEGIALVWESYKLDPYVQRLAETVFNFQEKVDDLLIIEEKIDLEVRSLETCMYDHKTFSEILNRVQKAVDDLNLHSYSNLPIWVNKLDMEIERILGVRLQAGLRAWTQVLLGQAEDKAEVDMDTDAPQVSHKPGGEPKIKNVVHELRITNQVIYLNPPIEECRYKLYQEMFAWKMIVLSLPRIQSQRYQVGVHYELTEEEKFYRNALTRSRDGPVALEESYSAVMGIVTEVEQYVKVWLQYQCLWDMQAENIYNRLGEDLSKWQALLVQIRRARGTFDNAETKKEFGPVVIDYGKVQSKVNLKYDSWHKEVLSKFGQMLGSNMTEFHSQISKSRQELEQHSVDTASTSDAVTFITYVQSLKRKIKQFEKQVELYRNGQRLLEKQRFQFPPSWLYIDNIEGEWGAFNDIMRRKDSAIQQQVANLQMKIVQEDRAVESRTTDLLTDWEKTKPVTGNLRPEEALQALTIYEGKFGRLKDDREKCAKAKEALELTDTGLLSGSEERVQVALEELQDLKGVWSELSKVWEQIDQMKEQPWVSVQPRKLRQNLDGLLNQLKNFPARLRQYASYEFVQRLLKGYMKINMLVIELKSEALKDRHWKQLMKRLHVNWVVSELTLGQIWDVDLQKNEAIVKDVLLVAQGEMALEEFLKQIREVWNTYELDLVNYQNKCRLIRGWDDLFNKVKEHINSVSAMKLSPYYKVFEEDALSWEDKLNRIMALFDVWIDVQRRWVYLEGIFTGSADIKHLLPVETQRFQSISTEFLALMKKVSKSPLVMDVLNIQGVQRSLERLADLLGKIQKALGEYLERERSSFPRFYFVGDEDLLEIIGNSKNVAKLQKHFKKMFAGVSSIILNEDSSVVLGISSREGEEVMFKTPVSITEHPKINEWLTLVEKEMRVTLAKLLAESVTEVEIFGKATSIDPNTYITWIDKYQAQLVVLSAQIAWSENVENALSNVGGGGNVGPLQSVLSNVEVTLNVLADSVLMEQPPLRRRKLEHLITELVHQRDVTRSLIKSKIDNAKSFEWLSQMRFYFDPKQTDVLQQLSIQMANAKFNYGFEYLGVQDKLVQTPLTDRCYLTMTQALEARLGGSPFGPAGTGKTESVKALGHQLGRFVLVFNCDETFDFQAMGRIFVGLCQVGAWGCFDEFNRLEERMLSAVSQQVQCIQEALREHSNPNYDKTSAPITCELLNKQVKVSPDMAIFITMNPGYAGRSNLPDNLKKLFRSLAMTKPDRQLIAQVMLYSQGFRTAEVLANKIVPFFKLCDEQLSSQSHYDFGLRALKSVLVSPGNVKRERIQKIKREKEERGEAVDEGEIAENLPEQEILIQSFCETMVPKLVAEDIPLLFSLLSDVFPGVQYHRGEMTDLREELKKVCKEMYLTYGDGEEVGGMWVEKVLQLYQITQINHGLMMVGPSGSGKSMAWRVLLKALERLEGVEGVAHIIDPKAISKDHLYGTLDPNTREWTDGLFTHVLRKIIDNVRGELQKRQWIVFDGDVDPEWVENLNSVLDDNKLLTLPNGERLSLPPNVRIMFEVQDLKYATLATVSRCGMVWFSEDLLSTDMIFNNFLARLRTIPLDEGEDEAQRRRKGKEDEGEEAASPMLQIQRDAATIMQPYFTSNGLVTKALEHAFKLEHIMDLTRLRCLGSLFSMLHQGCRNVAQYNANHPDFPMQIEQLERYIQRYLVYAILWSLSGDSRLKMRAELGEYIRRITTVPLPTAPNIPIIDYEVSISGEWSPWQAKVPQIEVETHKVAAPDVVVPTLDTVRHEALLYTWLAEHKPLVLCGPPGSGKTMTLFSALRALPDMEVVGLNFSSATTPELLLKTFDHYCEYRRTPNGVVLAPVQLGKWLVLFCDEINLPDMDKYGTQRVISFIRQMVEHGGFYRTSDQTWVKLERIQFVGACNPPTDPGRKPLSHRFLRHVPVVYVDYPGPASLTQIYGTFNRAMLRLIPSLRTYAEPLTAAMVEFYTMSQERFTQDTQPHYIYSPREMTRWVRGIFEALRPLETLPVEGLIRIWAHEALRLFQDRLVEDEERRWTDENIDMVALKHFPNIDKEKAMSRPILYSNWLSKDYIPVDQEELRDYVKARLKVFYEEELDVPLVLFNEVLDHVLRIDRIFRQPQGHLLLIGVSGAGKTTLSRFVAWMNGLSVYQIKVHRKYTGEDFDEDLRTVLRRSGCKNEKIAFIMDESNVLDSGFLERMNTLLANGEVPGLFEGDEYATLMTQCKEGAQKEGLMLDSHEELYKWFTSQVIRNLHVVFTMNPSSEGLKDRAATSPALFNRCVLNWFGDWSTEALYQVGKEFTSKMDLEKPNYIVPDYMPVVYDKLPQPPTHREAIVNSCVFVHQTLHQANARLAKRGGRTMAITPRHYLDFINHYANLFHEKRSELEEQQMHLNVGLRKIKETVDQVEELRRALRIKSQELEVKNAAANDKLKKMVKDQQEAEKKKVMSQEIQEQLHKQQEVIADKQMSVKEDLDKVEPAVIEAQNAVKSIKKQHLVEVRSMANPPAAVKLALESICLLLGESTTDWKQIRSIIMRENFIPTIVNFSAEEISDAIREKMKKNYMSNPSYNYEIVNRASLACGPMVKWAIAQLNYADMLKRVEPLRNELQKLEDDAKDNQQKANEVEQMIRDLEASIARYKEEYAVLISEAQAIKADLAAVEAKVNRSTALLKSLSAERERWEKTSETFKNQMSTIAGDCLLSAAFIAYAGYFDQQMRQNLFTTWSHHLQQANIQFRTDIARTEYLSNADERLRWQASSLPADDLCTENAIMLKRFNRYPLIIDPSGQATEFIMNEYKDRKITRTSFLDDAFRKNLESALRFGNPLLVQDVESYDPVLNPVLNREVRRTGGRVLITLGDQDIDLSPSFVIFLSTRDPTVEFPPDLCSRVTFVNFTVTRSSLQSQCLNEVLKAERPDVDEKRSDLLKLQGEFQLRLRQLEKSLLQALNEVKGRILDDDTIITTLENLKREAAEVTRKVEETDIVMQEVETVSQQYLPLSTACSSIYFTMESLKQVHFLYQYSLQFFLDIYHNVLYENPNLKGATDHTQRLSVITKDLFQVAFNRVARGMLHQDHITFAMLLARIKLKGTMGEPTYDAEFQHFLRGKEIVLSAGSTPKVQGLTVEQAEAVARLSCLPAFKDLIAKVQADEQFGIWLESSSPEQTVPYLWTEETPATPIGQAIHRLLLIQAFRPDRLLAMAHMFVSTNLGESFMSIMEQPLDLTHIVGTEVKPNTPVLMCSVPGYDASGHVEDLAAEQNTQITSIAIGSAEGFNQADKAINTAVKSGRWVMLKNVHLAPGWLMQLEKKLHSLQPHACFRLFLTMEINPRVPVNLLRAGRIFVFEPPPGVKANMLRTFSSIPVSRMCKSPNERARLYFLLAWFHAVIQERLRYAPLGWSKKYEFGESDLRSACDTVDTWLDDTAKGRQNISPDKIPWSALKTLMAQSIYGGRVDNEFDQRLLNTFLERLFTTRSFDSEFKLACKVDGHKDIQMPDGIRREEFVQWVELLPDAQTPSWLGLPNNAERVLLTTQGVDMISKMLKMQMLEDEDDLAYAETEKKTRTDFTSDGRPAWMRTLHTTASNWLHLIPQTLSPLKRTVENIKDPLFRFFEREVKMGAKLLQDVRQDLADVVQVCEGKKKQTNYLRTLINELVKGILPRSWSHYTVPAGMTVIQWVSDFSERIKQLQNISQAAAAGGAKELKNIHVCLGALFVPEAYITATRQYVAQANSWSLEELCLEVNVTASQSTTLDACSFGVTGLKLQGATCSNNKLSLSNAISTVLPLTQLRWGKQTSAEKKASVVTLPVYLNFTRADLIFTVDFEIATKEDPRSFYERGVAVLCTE

IC50, > 50 µM:
NCCCOc1c(Br)cc(Br)cc1CC(N=O)C(=O)NCCc1c[nH]c2ccccc12 (stereo unspecified) [3-[2-(3-aminopropoxy)-3,5-dibromophenyl]-2-hydroxyimino-N-[2-(1H-indol-3-yl)ethyl]propanamide hydrochloride]
NCCCOc1c(Br)cc(Br)cc1CC(N=O)C(=O)NCCc1ccc(Cl)cc1 (stereo unspecified) [3-[2-(3-aminopropoxy)-3,5-dibromophenyl]-N-[2-(4-chlorophenyl)ethyl]-2-hydroxyiminopropanamide hydrochloride]
NCCCOc1c(Cl)cc(Cl)cc1CC(N=O)C(=O)NCCc1c[nH]c2ccccc12 (stereo unspecified) [3-[2-(3-aminopropoxy)-3,5-dichlorophenyl]-2-hydroxyimino-N-[2-(1H-indol-3-yl)ethyl]propanamide hydrochloride]
NCCCOc1ccc(CC(N=O)C(=O)NCCc2c[nH]c3ccccc23)cc1Br (stereo unspecified) [3-[4-(3-aminopropoxy)-3-bromophenyl]-2-hydroxyimino-N-[2-(1H-indol-3-yl)ethyl]propanamide hydrochloride]
NCCCOc1ccc(CC(N=O)C(=O)NCCc2ccc(Cl)cc2)cc1Br (stereo unspecified) [3-[4-(3-aminopropoxy)-3-bromophenyl]-N-[2-(4-chlorophenyl)ethyl]-2-hydroxyiminopropanamide hydrochloride]
CCCCCCCCCCCCCC(=O)NCCCOc1c(Br)cc(CC(N=O)C(=O)NCCc2cnc(N)[nH]2)cc1Br (stereo unspecified) [Lipopurealin A]
